Among the data in patent US9550792B2, “Polycyclic substituted pyrazole kinase activity inhibitors and use thereof” (priority 2013, dated 2017) are IC50 values, retold here.

The subject of assay [1] is breast cancer cell line MDA231. Description: Anti-tumor activity in vitro, MTT method. The conditions noted are these: Homo sapiens, MDA-MB-231, 48 h, read-out: MDA231 (IC50/μM).
Method: (§1) MTT method: the dehydrogenase associated with NADP in the mitochondria of living cell is capable of reducing exogenous MTT into insoluble bluish violet crystal (Formazan), which is precipitated in the cell. […] DMSO or Triple liquid (10% SDS-5% isobutanol-0.01 mol/L HCl) is used to dissolve the crystal in the cell. The OD determined at 570 nm by a microplate reader can reflect the amount of the living cell indirectly.
(§2) The crystal is dissolved with DMSO and the detection is performed on a microplate reader.
Assay [2] relates to resistant breast cancer cell line MCF-7. Description: Anti-tumor activity in vitro, MTT method. As to conditions: Homo sapiens, MCF7, 48 h, read-out: Resistant MCF7 (IC50/μM). For orientation: Tetrazolium dyes change colour on reduction, which living cells bring about.
Method: as §1, §2

As for `CN1CCN(Cc2ccc(NC(=O)c3n[nH]cc3Nc3ncnc4sccc34)cc2)CC1` [Compound I-1, 4-(4-thieno[2,3-d]pyrimidinylamino)-N-(4-((4-methyl-1-piperazinyl)methyl)phenyl)-1H-3-pyrazole carboxamide], the IC50 worked out at 5.45 µM in assay [1] and 3.73 µM in assay [2].
